Source: patent publication US9339486B2, “Heterocyclic modulators of cannabinoid receptors” (THE CLEVELAND CLINIC FOUNDATION, priority 2008, dated 2016)

Legend:
CB2 [1] = biological target: T1, CB2 (Homo sapiens (Human), UniProt P34972); experiment: CB1/CB2 Functional Assay (GTPγ[35S]), CB2 membranes; assay type: biochemical
Description: A dose response curve was generated at eight concentrations in duplicate on CB1 and CB2 in light of reference agonists. The reference agonists for cannabinoid receptors was CP55,940. See FIGS. 1A, 1B, 2A, 2B, 3A and 3B.
Membranes (CB1, ES-110-MG or CB2, ES-111-MG) were mixed with GDP (volume:volume) and incubated for at least 15 min on ice. In parallel, GTPγ[^35S] were mixed with the beads (volume:volume) just before starting the reaction. The following reagents were successively added in the wells of an Optiplate: 50 μl of ligand, 20 μl of the membranes:GDP mix, 10 μl of assay buffer for agonist testing and 20 μl of the GTPγ[^35S]: beads mix. The plates were covered with a topseal, shaken on an orbital shaker for 2 min, and then incubated between 30 to 60 min. at room temperature. Then the plates were centrifuged for 10 min at 2000 rpm, incubated at room temperature between 1 to 4 hours and counted for 1 min with a PerkinElmer TopCount reader.

CB2 [2] = biological target: T1, CB2; experiment: Radioligand competition binding, CHO-K1 membranes, [3H]CP 55,940; settings: 1 nM [3H]CP 55,940, read-out: Mean Ki (nM) hCB2
Description: Mukherjee, S., et al., Species Comparison and Pharmacological Characterization of Rat and Human CB2 Cannabinoid Receptors, Eur J Pharmacol, 2004, 505:1-9. […] IC50 were determined by non-linear regression using one site competition equation. The inhibition constants (Ki) were calculated using the Cheng Prusoff equation (Ki=IC50/(1+(L/KD)), where L=concentration of radioligand in the assay, and KD=affinity of the radioligand for the receptor).

nerve-ligation model = experiment: Assessment of mechanical allodynia in rats, L5/6 spinal-nerve ligation, von Frey (IP or IT); assay type: in vivo, rat
Description: All experiments were performed on male Sprague-Dawley rats (200-250 g). Rats were housed individually in plastic cages with soft bedding at room temperature and maintained on a 12-hour light-dark cycle with free access to food and water.
Neuropathic pain was induced following the methods of Kim and Chung. Kim S H, Chung J M. An experimental model for peripheral neuropathy produced by segmental spinal nerve ligation in the rat. Pain 1992; 50:355-63. Rats were anesthetized and placed prone under a microsurgical apparatus. A midline incision was made on the back, and the right paraspinal muscles were separated from the spinous processes at the L4-S2 levels. The L6 transverse process was carefully removed, and the L4/5 spinal nerves were identified. The L5 nerve was tightly ligated with a 6-0 silk suture. The right L6 spinal nerve was then located just caudal and medial to the sacroiliac junction and tightly ligated with a silk suture.
Two weeks later after spinal nerve ligation, Intrathecal catheters (PE-10 tubing) was inserted into the rats while they were anesthetized with isoflurane, as described by Yaksh and Rudy. Yaksh T L, Rudy T A. Chronic catheterization of the spinal subarachnoid space. Physiology & Behavior 1976; 17:1031-6. A midline incision was made on the back of the neck. The muscle was freed at the attachment to the skull exposing the cisternal membrane. The membrane was opened with a stab blade and an 8.5 cm polyethylene (PE-10) catheter was then inserted through the cisternal opening, and passed carefully and caudally into the intrathecal space at the L1-L3 spinal segments. The end of the catheter was tunneled through the subcutaneous space over the frontal bones, flushed with 10 μl saline, and then plugged with a short length of wire. Animal testing was performed 5-7 days after intrathecal catheter placement.
To assess mechanical allodynia, the mechanical paw withdrawal threshold was measured with a series of von Frey hairs (range 0.4-15 g). Rats were placed in elevated Perspex enclosures (28 cm×15 cm×18 cm) with wire mesh bases and given 15-20 min to acclimatize to the testing environment. Rats will be allowed to acclimatize for 30 min in a clear plastic cage with a wire mesh bottom. The calibrated von Frey filament fibers were applied to the hindpaw briefly for 6 seconds to determine the paw withdrawal threshold before and after drug injection (intraperitoneally or intrathecally). A series of von Frey filaments with exponentially incremental stiffness (0.4, 0.7, 1.2, 2.0, 3.6, 5.5, 8.5 and 15 g) were used to measure the 50% threshold for hindpaw withdrawal in awake, unrestrained rats. Chaplan S R, Bach F W, Pogrel J W, Chung J M, Yaksh T L. Quantitative assessment of tactile allodynia in the rat paw. Journal of Neuroscience Methods 1994; 53:55-63. Brisk paw withdrawal from the pressure of a filament gently bent against the plantar paw was defined as a positive response, and absence of withdrawal within 6 s as a negative response. Filaments were touched to the hindpaw in sequential ascending or descending order until the threshold of response is crossed (allowing about 10 s between each increment of the von Frey filaments). Each time the threshold is crossed, the direction of stimulus presentation was reversed and the procedure will be resumed. Four responses were collected after the first threshold detection, and the 50% withdrawal thresholds were interpolated. In cases where response thresholds fell outside the range of detection, 15.00 and 0.25 g were, respectively, assigned for continuous negative or positive responses to the limit of stimuli.
The compound of Example 3 was prepared in dimethyl sulfoxide (DMSO).

naïve rats = experiment: Thermal paw withdrawal latency in naïve rats; assay type: in vivo, rat
Description: To determine sensitivity to noxious heat, rats were placed in plexiglass enclosures on a transparent glass surface maintained at 30° C. and allowed to acclimate for 30 min. A thermal testing apparatus, consisting of a heat-emitting projector lamp and an electronic timer, was used. The device was activated after the lamp is placed directly beneath the planter surface of the hindpaw. The paw withdrawal latency in response to the radiant heat was recorded by a digital timer. A cutoff of 30 s was used to prevent potential tissue damage. After the baseline was measured, three groups of naïve rats (n=10) received 1.0, 3.0, or 10 mg/kg of the compound of Example 3 i.p. Response latencies were determined twice for each rat before drug injection and at 5, 10, 15, 30, 45, 60, 90 and 120 min after IP injection. The percent maximal possible effect (% MPE) was calculated as ([postdrug latency−baseline latency]/[cutoff time (30 s)−baseline latency])×100.

T1 sequence (P34972 whole entry): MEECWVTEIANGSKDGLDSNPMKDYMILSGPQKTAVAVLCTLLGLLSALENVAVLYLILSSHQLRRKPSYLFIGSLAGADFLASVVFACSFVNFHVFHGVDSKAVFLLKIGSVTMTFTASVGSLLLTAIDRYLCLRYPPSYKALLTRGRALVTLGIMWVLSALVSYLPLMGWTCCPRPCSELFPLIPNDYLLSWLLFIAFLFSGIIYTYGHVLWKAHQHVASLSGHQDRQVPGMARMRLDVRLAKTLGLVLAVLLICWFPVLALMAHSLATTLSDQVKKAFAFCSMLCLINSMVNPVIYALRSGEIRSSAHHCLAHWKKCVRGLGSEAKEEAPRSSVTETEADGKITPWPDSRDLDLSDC

In the case of `CC1(Cc2ccccc2)COc2cc(C(=O)N3CCCCC3)ccc21` (stereo not shown) [Example 3, 3-benzyl-3-methyl-2,3-dihydrobenzofuran-6-carboxylic acid-piperidine amide], the “Compound Function” value (CB2 [1]) is reported as “Agonist”, the EC50 (CB2 [1]; read-out: EC50 (nM) for GTP Binding) is reported as 160 nM and the “% Activation Average” value (CB2 [1]; reference agonist CP55,940) is reported as 87.2%. The Ki (CB2 [2]) was 422 ± 123 nM, the “mechanical paw withdrawal threshold maintained” value (nerve-ligation model; IP 30 mg/kg) was 15 g and the “time of peak effect following IP administration” value (nerve-ligation model; IP 30 mg/kg) was no more than 5 min. For the same compound, the “effect on mechanical paw withdrawal threshold” value (nerve-ligation model; IP 30 mg/kg in 0.5 ml) was “increase in mechanical paw withdrawal threshold”, the “duration of high threshold” value (nerve-ligation model; IP 30 mg/kg, 2-h observation period) was greater than 2 h and the “behavioral abnormalities or side effects” value (nerve-ligation model; IT administration) was “No behavioral abnormalities or side effects were noted”. The “effect on mechanical paw withdrawal threshold” value (nerve-ligation model; IT administration) was “increase in mechanical paw withdrawal threshold”, the “duration of increase in mechanical paw withdrawal threshold” value (nerve-ligation model; IT administration, 90-min observation period) was no less than 90 min and the “nociceptive effect of a thermal stimulus applied to hind paws” value (naïve rats; 1 mg/kg or 3 mg/kg i.p.) was “did not block”. For the same compound, the “nociceptive effect of a thermal stimulus applied to hind paws” value (naïve rats; 10 mg/kg i.p.) was “short-lasting antinociceptive effect”.
